From US20080207708A1, “Oxazole and Thiazole Compounds and Their Use in the Treatment of Pge2 Mediated Disorders” (GLAXO GROUP LIMITED, priority 2005, published 2008)
Where a name gives a salt, the structure may show the parent alone.

Key:
EP1 receptors [1] = molecular target: T1, EP1 receptors (Homo sapiens, UniProt P34995); experiment: Binding assay for the human prostanoid EP1 receptor (competition with [3H]-PGE2); parameters: expressed in transfected cells; host or cells: CHO-K1 cells, membrane fraction; conditions: [3H]-PGE2 competition; averages of a number of experiments; read-out: pIC50 value, binding assay for the human prostanoid EP1 receptor (converted)
T1 sequence (P34995 1-402): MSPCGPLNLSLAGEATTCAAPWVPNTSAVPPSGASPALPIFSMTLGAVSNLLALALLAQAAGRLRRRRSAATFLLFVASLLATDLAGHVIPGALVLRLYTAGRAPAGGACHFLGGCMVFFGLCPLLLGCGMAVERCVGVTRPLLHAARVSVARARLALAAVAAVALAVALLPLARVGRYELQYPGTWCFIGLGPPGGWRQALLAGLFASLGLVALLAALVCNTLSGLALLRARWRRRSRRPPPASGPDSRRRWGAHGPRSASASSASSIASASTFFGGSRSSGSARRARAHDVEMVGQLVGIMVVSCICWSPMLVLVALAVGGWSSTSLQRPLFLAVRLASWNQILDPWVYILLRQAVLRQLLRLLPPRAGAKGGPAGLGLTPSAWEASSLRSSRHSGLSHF
Summary of the method: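 Membranes from CHO-K1 cells stably expressing human EP1 incubated with compounds and [3H]-PGE2 (3 nM final) for 30 min at 30° C in MES buffer with EDTA and MgCl2, pH 6. Bound radioactivity measured after filtration; IC50 from nonlinear fit of specific binding inhibition.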

EP1 receptors [2] = molecular target: T1, EP1 receptors; experiment: human EP1 calcium mobilisation assay (CHO-K1 cells, FLIPR, PGE2); format: cell-based; parameters: expressed in transfected cells; host or cells: CHO-K1 cells, pCIN vector; conditions: free bases or sodium salts; averages of a number of experiments; read-out: functional pKi value, human EP1 calcium mobilisation assay (converted)
Protocol: Briefly, the antagonist properties of compounds are assessed by their ability to inhibit the mobilisation of intracellular calcium ([Ca^2+]i) in response to activation of EP1 or EP3 receptors by the natural agonist hormone prostaglandin E2 (PGE2). Increasing concentrations of antagonist reduce the amount of calcium that a given concentration of PGE2 can mobilise. The net effect is to displace the PGE2 concentration-effect curve to higher concentrations of PGE2. The amount of calcium produced is assessed using a calcium-sensitive fluorescent dye such as Fluo-4, AM and a suitable instrument such as a Fluorimetric Imaging Plate Reader (FLIPR). Increasing amounts of [Ca^2+]i produced by receptor activation increase the amount of fluorescence produced by the dye and give rise to an increasing signal. The signal may be detected using the FLIPR instrument and the data generated may be analysed with suitable curve-fitting software.
The human EP1 or EP3 calcium mobilisation assay (hereafter referred to as ‘the calcium assay’) utilises Chinese hamster ovary-K1 (CHO-K1) cells into which a stable (pCIN; BioTechniques 20 (1996): 102-110) vector containing either EP1 or EP3 cDNA has previously been transfected. Cells are cultured in suitable flasks containing culture medium such as DMEM:F-12 supplemented with 10% v/v foetal calf serum, 2 mM L-glutamine, 0.25 mg/ml geneticin, 100 μM flurbiprofen and 10 µg/ml puromycin. For assay, cells are harvested using a proprietary reagent that dislodges cells such as Versene. Cells are re-suspended in a suitable quantity of fresh culture media for introduction into a 384-well plate. Following incubation for 24 hours at 37° C. the culture media is replaced with a medium containing Fluo-4 and the detergent pluronic acid, and a further incubation takes place. Concentrations of compounds are then added to the plate in order to construct concentration-effect curves. This may be performed on the FLIPR in order to assess the agonist properties of the compounds. Concentrations of PGE2 are then added to the plate in order to assess the antagonist properties of the compounds. The data so generated may be analysed by means of a computerised curve-fitting routine. The concentration of compound that elicits a half-maximal inhibition of the calcium mobilisation induced by PGE2 (pIC50) may then be estimated.

CC(C)COc1ccc(Cl)cc1Cc1nc(-c2nc3ccc(CN4CCCCC4)cc3[nH]2)co1 [Example 177, 2-[2-({5-chloro-2-[(2-methylpropyl)oxy]phenyl}methyl)-1,3-oxazol-4-yl]-5-(1-piperidinylmethyl)-1H-benzimidazoledihydrochloride]
IC50 (EP1 receptors [1]): ≤ 0.0316 µM
Ki (EP1 receptors [2]): < 1 µM

CS(=O)(=O)NC(=O)c1csc(Cc2cc(Cl)ccc2OCc2ccc(F)cc2)n1 [Example 107, 2-[(5-Chloro-2-{[(4-fluorophenyl)methyl]-oxy)phenyl)methyl]-N-(methylsulfonyl)-1,3-thiazole-4-carboxamide]
IC50 (EP1 receptors [1]): ≤ 0.0316 µM
Ki (EP1 receptors [2]): < 1 µM

O=C(NCc1ccncc1)c1csc(Cc2cc(Cl)ccc2OCc2ccccc2)n1 [Example 96, 2-({5-Chloro-2-[(phenylmethyl)oxy]phenyl}methyl)-N-(4-pyridinylmethyl)-1,3-thiazole-4-carboxamide]
IC50 (EP1 receptors [1]): ≤ 1 µM
Ki (EP1 receptors [2]): < 1 µM

Cc1nnc(-c2csc(Cc3cc(Cl)ccc3OCC(C)C)n2)[nH]1 [Example 158, 3-[2-({5-Chloro-2-[(2-methyl-propyl)oxy]-phenyl}methyl)-1,3-thiazol-4-yl]-5-methyl-1H-1,2,4-triazole]
IC50 (EP1 receptors [1]): ≤ 1 µM
Ki (EP1 receptors [2]): < 1 µM

CN1CCN(CCc2ccc3nc(-c4csc(Cc5cc(Cl)ccc5OCc5ccccc5)n4)[nH]c3c2)CC1 [Example 115, 2-[2-({5-chloro-2-[(phenylmethyl)oxy]-phenyl}methyl)-1,3-thiazol-4-yl]-5-[2-(4-methyl-1-piperazinyl)ethyl]-1H-benzimidazole]
IC50 (EP1 receptors [1]): ≤ 0.0316 µM
Ki (EP1 receptors [2]): < 1 µM

CC(C)COc1ccc(Cl)cc1Cc1nc(-c2nc3ccc(N4CCN(C)CC4)cc3[nH]2)cs1 [Example 142, 2-[2-({5-Chloro-2-[(2-methylpropyl)oxy]phenyl}methyl)-1,3-thiazol-4-yl]-5-(4-methyl-1-piperazinyl)-1H-benzimidazole hydrochloride]
IC50 (EP1 receptors [1]): ≤ 0.0316 µM
Ki (EP1 receptors [2]): < 1 µM

CC(C(=O)O)c1csc(-c2cc(Cl)ccc2OCc2ccccc2)n1 (stereo not shown) [Example 46, Sodium 2-(2-{5-chloro-2-[(phenylmethyl)oxy]phenyl}-1,3-thiazol-4-yl)propanoate]
IC50 (EP1 receptors [1]): ≤ 1 µM
Ki (EP1 receptors [2]): < 1 µM

Clc1ccc(OCc2ccccc2)c(Cc2nc(-c3nc4ncccc4[nH]3)cs2)c1 [Example 133, 2-[2-({5-Chloro-2-[(phenylmethyl)oxy]phenyl}methyl)-1,3-thiazol-4-yl]-1H-imidazo[4,5-b]pyridine]
IC50 (EP1 receptors [1]): ≤ 1 µM
Ki (EP1 receptors [2]): < 1 µM

O=C(Nc1csc(Cc2cc(Cl)ccc2OCc2ccccc2)n1)c1ccc(CN2CCCCC2)cc1 [Example 113, N-[2-({5-Chloro-2-[(phenylmethyl)oxy]phenyl}methyl)-1,3-thiazol-4-yl]-4-(1-piperidinylmethyl)benzamide]
IC50 (EP1 receptors [1]): ≤ 1 µM
Ki (EP1 receptors [2]): < 1 µM

CC(C)COc1ccc(Cl)cc1Cc1nc(-c2nc3ccc(CCN4CCN(C)CC4)cc3[nH]2)cs1 [Example 117, 2-[2-({5-Chloro-2-[(2-methylpropyl)oxy]phenyl}-methyl)-1,3-thiazol-4-yl]-5-(2-(4-methyl-1-piperazinyl)ethyl]-1H-benzimidazole]
IC50 (EP1 receptors [1]): ≤ 0.0316 µM
Ki (EP1 receptors [2]): < 1 µM

O=C(Nc1ccc(CN2CCOCC2)cc1)c1csc(Cc2cc(Cl)ccc2OCc2ccccc2)n1 [Example 120, 2-({5-Chloro-2-[(phenylmethyl)oxy]phenyl}-methyl)-N-[4-(4-morpholinylmethyl)phenyl]-1,3-thiazole-4-carboxamidehydrochloride]
IC50 (EP1 receptors [1]): ≤ 1 µM
Ki (EP1 receptors [2]): > 1 µM

Clc1ccc(OCc2ccccc2)c(Cc2nc(-c3nc4ccc(N5CCOCC5)cc4[nH]3)cs2)c1 [Example 149, 2-[2-({5-Chloro-2-[(phenylmethyl)oxy]phenyl}methyl)-1,3-thiazol-4-yl]-5-(4-morpholinyl)-1H-benzimidazole hydrochloride]
IC50 (EP1 receptors [1]): ≤ 0.0316 µM
Ki (EP1 receptors [2]): < 1 µM

CC(C)COc1ccc(Cl)cc1C(F)(F)c1nc(-c2nc3ccccc3[nH]2)cs1 [Example 141, 2-{2-[{5-chloro-2-[(2-methylpropyl)oxy]phenyl}(difluoro)methyl]-1,3-thiazol-4-yl}-1H-benzimidazole hydrochloride]
IC50 (EP1 receptors [1]): ≤ 1 µM
Ki (EP1 receptors [2]): > 1 µM

CNCc1ccc2nc(-c3csc(Nc4cc(Cl)ccc4OCC(C)C)n3)[nH]c2c1 [Example 179, N-{5-Chloro-2-[2-methylpropyl)oxy]phenyl}-4-{5-[(methylamino)methyl]-1H-benzimidazol-2-yl}-1,3-thiazol-2-amine hydrochloride]
IC50 (EP1 receptors [1]): ≤ 0.0316 µM
Ki (EP1 receptors [2]): > 1 µM

CN1CCN(c2ccc3nc(-c4csc(Cc5cc(Cl)ccc5OCc5ccccc5)n4)[nH]c3c2)CC1 [Example 148, 2-[2-({5-Chloro-2-[(phenylmethyl)oxy]phenyl}methyl)-1,3-thiazol-4-yl]-5-(4-methyl-1-piperazinyl)-1H-benzimidazole hydrochloride]
IC50 (EP1 receptors [1]): ≤ 0.0316 µM
Ki (EP1 receptors [2]): < 1 µM

O=C(NS(=O)(=O)c1ccccc1)c1csc(Cc2cc(Cl)ccc2OCc2ccc(F)cc2F)n1 [Example 102, 2-[(5-Chloro-2-{[(2,4-difluorophenyl)methyl]oxy}phenyl)methyl]-N-(phenylsulfonyl)-1,3-thiazole-4-carboxamide]
IC50 (EP1 receptors [1]): ≤ 0.0316 µM
Ki (EP1 receptors [2]): < 1 µM

CC(C)COc1ccc(Cl)cc1Cc1nc(-c2nc3ccc(CCN(C)C)cc3[nH]2)cs1 [Example 116, (2-{2-[2-({5-Chloro-2-[(2-methylpropyl)oxy]-phenyl}methyl)-1,3-thiazol-4-yl]-1H-benzimidazol-5-yl}ethyl)dimethylamine]
IC50 (EP1 receptors [1]): ≤ 0.0316 µM
Ki (EP1 receptors [2]): < 1 µM

CC(C)COc1ccc(Cl)cc1Cc1nc(-c2nc3ccc(CN4CCN(C)CC4)cc3[nH]2)co1 [Example 178, 2-[2-({5-Chloro-2-[(2-methylpropyl)oxy]phenyl}methyl)-1,3-oxazol-4-yl]-5-[(4-methyl-1-piperazinyl)methyl]-1H-benzimidazoletrihydrochloride]
IC50 (EP1 receptors [1]): ≤ 0.0316 µM
Ki (EP1 receptors [2]): < 1 µM

CC(C)COc1ccc(Cl)cc1Nc1nc(-c2nc3ccccc3[nH]2)cs1 [Example 164, 4-(1H-Benzimidazol-2-yl)-N-{5-chloro-2-[(2-methylpropyl)oxy]phenyl}-1,3-thiazol-2-aminehydrochloride]
IC50 (EP1 receptors [1]): ≤ 0.0316 µM
Ki (EP1 receptors [2]): < 1 µM

CC(C)COc1ccc(Cl)cc1Cc1nc(-c2nc3ccc(CCN(C)C)cc3[nH]2)co1 [Example 166, (2-{2-[2-({5-Chloro-2-[(2-methylpropyl)oxy]phenyl}methyl)-1,3-oxazol-4-yl]-1H-benzimidazol-5-yl}ethyl)dimethylamine hydrochloride]
IC50 (EP1 receptors [1]): ≤ 0.0316 µM
Ki (EP1 receptors [2]): < 1 µM

O=C(NS(=O)(=O)c1ccccc1)c1csc(Cc2cc(Cl)ccc2OCc2ccccc2Cl)n1 [Example 104, 2-[(5-Chloro-2-{[(2-chlorophenyl)methyl]-oxy}phenyl)methyl]-N-(phenylsulfonyl)-1,3-thiazole-4-carboxamide]
IC50 (EP1 receptors [1]): ≤ 0.0316 µM
Ki (EP1 receptors [2]): < 1 µM

CC(C)COc1ccc(Cl)cc1Cc1nc(-c2nc3ncccc3[nH]2)cs1 [Example 132, 2-[2-({5-Chloro-2-[(2-methyl-propyl)oxy]-phenyl}methyl)-1,3-thiazol-4-yl]-1H-imidazo[4,5-b]pyridine]
IC50 (EP1 receptors [1]): ≤ 0.0316 µM
Ki (EP1 receptors [2]): < 1 µM

CC(=O)Nc1csc(Cc2cc(Cl)ccc2OCc2ccccc2)n1 [Example 127, N-[2-({5-Chloro-2-[(phenylmethyl)oxy]phenyl}methyl)-1,3-thiazol-4-yl]acetamide]
IC50 (EP1 receptors [1]): ≤ 1 µM
Ki (EP1 receptors [2]): > 1 µM
